The text below walks through data of article PMC2229537 (The Journal of General Physiology, 2002).

Where “and” joins values, the source holds several entries; their conditions need not be identical. Equal values may be shown once.

Experiment [1] has as its system adult human receptor. To be noted: resting closed state; ref Ohno et al., 1996; Wang et al., 1999; cited from earlier work.
In experiment [2] the test system is fetal mouse receptor. The note with it: resting closed state; ref Zhang et al., 1995; cited from earlier work.
Experiment [3] relates to Torpedo receptor. To be noted: resting closed state; ref Sine et al., 1990; cited from earlier work.
In experiment [4] the test system is EP AChRs of CMS patient (εD175N and εN182Y). The experiment is described as follows: Patch-clamp recordings of ACh-elicited channel currents from patient endplates. Type of experiment: cell-based, human. The note with it: −80 mV. For orientation: The patch-clamp technique gives a direct electrical read-out from membranes.
Experiment [5] concerns the target wild-type AChR (Homo sapiens, UniProt P02708+Q04844+Q07001). Type of experiment: binding. To be noted: 100 μM proadifen.
The mark [6] stands for this setting: ACh 5 μM, 8 kHz, 22°C, mean ± SE, four EPs.

wild-type AChR, sequence (P02708 21-457): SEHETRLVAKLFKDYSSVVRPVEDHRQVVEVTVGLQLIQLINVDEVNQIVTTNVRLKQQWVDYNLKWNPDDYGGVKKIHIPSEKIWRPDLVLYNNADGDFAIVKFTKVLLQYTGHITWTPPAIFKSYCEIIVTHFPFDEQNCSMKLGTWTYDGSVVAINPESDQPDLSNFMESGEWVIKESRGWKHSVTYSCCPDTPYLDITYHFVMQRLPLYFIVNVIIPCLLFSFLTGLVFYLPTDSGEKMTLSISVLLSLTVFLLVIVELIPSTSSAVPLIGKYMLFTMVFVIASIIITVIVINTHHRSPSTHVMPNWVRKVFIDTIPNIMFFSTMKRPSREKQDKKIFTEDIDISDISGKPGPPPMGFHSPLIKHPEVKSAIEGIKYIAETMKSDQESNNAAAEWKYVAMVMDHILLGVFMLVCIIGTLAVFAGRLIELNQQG
wild-type AChR, sequence (P11230 24-501 partner): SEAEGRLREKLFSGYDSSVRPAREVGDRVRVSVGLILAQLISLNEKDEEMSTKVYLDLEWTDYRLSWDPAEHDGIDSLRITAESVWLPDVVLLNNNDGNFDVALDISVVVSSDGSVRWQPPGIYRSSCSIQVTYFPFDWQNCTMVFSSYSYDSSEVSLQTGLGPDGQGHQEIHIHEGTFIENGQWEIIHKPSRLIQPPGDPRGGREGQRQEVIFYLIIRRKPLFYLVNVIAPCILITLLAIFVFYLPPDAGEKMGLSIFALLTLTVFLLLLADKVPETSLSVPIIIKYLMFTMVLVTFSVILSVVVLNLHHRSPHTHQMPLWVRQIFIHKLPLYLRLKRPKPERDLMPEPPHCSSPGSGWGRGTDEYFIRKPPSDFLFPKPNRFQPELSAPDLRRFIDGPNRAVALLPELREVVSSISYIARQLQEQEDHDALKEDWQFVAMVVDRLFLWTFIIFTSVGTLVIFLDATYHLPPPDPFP
wild-type AChR, sequence (Q07001 22-517): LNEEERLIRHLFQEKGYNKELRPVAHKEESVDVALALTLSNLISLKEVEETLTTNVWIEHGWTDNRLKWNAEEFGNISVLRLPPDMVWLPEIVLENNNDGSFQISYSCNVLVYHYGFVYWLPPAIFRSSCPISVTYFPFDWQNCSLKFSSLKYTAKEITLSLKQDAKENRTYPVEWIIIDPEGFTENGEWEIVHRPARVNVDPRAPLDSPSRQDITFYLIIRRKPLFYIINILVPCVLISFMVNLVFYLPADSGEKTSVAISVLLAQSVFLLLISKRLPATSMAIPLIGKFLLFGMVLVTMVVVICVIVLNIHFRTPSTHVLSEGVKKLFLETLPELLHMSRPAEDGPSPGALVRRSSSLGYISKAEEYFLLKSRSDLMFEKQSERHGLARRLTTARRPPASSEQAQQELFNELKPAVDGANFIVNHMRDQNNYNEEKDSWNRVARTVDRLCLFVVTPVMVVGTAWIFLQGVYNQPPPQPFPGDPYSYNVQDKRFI
wild-type AChR, sequence (Q04844 21-493): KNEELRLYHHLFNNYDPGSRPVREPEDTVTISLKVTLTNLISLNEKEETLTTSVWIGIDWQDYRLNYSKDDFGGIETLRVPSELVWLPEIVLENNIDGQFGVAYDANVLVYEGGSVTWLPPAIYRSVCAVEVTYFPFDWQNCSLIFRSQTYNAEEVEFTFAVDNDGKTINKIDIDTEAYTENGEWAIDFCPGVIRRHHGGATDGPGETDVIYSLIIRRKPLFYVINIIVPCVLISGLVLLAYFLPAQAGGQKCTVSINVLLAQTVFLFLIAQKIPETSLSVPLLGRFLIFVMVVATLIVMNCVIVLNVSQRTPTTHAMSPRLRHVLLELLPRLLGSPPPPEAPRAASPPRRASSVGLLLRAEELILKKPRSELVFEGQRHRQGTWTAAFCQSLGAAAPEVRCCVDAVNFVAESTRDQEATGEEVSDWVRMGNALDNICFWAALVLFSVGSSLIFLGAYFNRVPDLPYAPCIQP

For `CC(=O)OCC[N+](C)(C)C` [ACh, acetylcholine], the “difference in ACh affinity for the two sites” value (“difference in ACh affinity” below) in experiment [1] is recorded as “sixfold”. For the same molecule, the “difference in ACh affinity” value in experiment [2] was 32 fold. Also, in experiment [3], the “difference in ACh affinity” value was about 100 fold. In addition, in experiment [4] (setting [6]), the “Bursts τ1” value is 0.17 ± 0.025 ms; the “Bursts τ2” value was 0.59 ms and 0.59 ± 0.061 ms; the “Bursts, area of τ1 component” value worked out at 0.61 ± 0.061; the “Bursts, area of τ2 component” value was determined as 0.39 ± 0.061. In experiment [4] (setting [6]), the “Open intervals τ1” value worked out at 0.17 ± 0.021 ms; the “Open intervals τ2” value is 0.51 ± 0.037 ms; the “Open intervals, area of τ1 component” value is on record as 0.65 ± 0.19; the “Open intervals, area of τ2 component” value is 0.34 ± 0.096. Besides, the “burst duration time constant τ1” value in experiment [4] (Fig. 1 histogram, one patient, 5 μM ACh) came to 0.185.
Take `CCCC(C(=O)OCCN(CC)CC)(c1ccccc1)c1ccccc1` [proadifen]: in experiment [5], the “increase of ACh affinity in the presence of proadifen” value was about 100 fold.
